Source: patent publication US8519124B2, “Chemokine receptor antagonists and use thereof” (Ono Pharmaceutical Co., Ltd., priority 2005, dated 2013)

Assays:
[1] = test system: CHL/IU (cell line derived from a Chinese hamster lung); assay: Phospholipidosis detecting system using fluorescent labeling phospholipid analog (NBD-PE); assay type: cell-based; details: compound dose: 50 μM; for The rate of increase of phopholipid accumulation (%): CHL/IU cells, about 24 hours, relative to NBD-PE control
Protocol: Investigation with a Phospholipidosis Detecting System Using Fluorescent Labeling Phospholipidosis Analog (i) Phospholipid Accumulation Measurement 100 μL/well as required (1 dose 2 wells) of cell suspension of CHL/IU (cell line derived from a Chinese hamster lung) adjusted by MEM (7×10^4 cells/mL) adjusted by MEM (minimum essential medium) culture medium was added to a 96-well plate (96-well clear-bottom plate), and cultured for about 24 hours. After culture, the supernatant of the 96-well plate was removed, and the 100 μL/well compounds of each concentration dissolved and suspended in a minimum essential medium (MEM) including 25 μmol/L nitrobenzoxadiazole dipalmitoyl phosphatidylethanolamine (NBD-PE) (hereinafter abbreviated as a NPD-PE medium) were added and treated for about 24 hours. The treatment concentrations of each compound were set to be 6.25, 12.5, 25, 50 and 100 μmol/L. The positive control substance was set to be amiodarone hydrochloride, and the treatment concentrations were set to be 1.25, 2.5, 5, 10 and 20 μmol/L. In addition, 5 untreated controls (only MEM) and 5 NBD-PE controls (made by means of adding a 1/100 amount of DMSO to the NBD-PE culture medium) were set per compound, and cultured in the same manner. After finishing the culture, the cultures were washed twice with Phosphate buffered saline (hereinafter abbreviated as PBS) (−) 100 μL/well, and the MEM (100 μL) was added to all of the treatment wells including 2 empty wells for WST-1 background controls and cultured for about a half hour. The fluorescence intensities of each well were measured by using a microplate reader (manufactured by Molecular Devices Inc., SPECTRA max M2; the excitation wavelength 485 nm/the fluorescence wavelength 535 nm). (ii) Analysis Using the average values of each dose×2 wells, a phospholipid increase rate (%) to the NBD-PE control was calculated by using the following calculating formula: Phospholipid increase rate (%)=100×{(test article fluorescence intensity−untreated control fluorescence intensity)/(NBD-PE control fluorescence intensity−untreated control fluorescence intensity (iii) Cytotoxicity Assay The 96-well plate measured in the phospholipid accumulation measurement was measured by means of Plate Reader (manufactured by Molecular Devices Inc., SPECTRA max M2) with the main wavelength of 450 nm and the correct wavelength of 690 nm to calculate a Pre value. An amount of 5 μL/well of Premix WS T-1 was added to each of the 96 hole plates by which Pre measurement was conducted. After culture for 2 to 4 hours, the 96-well plate was measured as well as the Pre measurement to calculate an Aft value. Then, the background control value was subtracted from the each measured value. A value which was calculated by subtracting the Pre value from the Aft value was used, then the cell growth rate (%) was calculated by using the following calculating formula: Cell growth rate (%)=100×{(test article OD)/(NBD-PE control OD)} (iv) Determination A test dose that indicated value of equal to or more than 25% of the maximum phospholipid accumulation increase rate of amiodarone which was the positive control was determined as positive. In addition, the dose whose cell growth rate was equal to or less than 50% in the cytotoxicity assay was not used for determination of existence or nonexistence of a phospholipidosis inductive effect.

[2] = target: T1, CXCR4 (Homo sapiens, UniProt P61073); assay: Study for inhibition of binding human SDF-1 to CEM cells (125I-SDF-1); details: 125I-SDF-1 binding to CEM cells
T1 construct: a human T cell strain in which CXCR4 is known to be expressed; endogenous in cells; host or cells: CEM cells (human T cell strain)
T1 sequence (P61073 whole entry): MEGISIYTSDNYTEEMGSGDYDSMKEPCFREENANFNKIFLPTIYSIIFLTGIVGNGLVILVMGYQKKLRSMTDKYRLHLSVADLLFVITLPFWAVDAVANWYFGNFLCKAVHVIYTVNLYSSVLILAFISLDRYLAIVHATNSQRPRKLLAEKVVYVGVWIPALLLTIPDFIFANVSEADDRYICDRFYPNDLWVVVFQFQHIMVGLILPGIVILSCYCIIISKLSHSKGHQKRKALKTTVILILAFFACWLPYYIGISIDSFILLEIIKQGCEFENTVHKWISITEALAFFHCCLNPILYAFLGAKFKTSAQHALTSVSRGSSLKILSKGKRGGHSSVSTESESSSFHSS
Source text: Specifically, as a system of screening a compound that inhibits the binding between SDF-1 and CXCR4, for example a system of measuring the binding between iodine-labeled SDF-1 and a human T cell strain in which CXCR4 is known to be expressed is operable. The identical idea is possible since macrophage (R5) HIV and RANTES, MIP-1α, and MIP-1β all bind to CCR5.
Study for Inhibition of Binding Human SDF-1 to CEM Cells
To human T cell strain CEM cells in a binding buffer (containing HEPES and BSA), the test compound and ^125I-SDF-1 (NEN) were added and the mixture was incubated at 4° C. for 60 minutes. The reacted CEM cells were rapidly filtrated with a GF/B membrane filter plate (Packard) to adsorb. The plate was washed with PBS three times and then dried. Microscint+20 (Packard) was added thereto. An amount of the radioactivity bound to the CEM cells was measured using Top Count (Packard) and inhibition (%) of the test compound was calculated according to the following equation: Inhibition={(Et−Ea)/(Et−Ec)}×100
Et: amount of radioactivity when the test compound is not added,
Ec: amount of radioactivity when non-radioactive SDF-1 (Pepro Tech) is added in an amount of 1000 times as much as ^125I-SDF-1 as a test compound, and
Ea: amount of radioactivity when the test compound is added.

| IC50 [2] [nM] | SMILES | Judgement (phospholipidosis inductive effect) [1] | The rate of increase of phopholipid accumulation (%) [1] [%] |
| --- | --- | --- | --- |
| 15 | CC(C)CN1CCC2(CCN(Cc3ccc(C(=O)N(Cc4ncc[nH]4)Cc4ncc[nH]4)cc3)CC2)C1 [Example 8 (113), N,N-bis(1H-imidazol-2-ylmethyl)-4-[(2-isobutyl-2,8-diazaspiro[4.5]dec-8-yl)methyl]benzamide] | negative | 10 |
| – | CC(C)(C)CN1CCC2(CC1)CCN(C(=O)Cc1ccc(CN(Cc3ncc[nH]3)Cc3ncc[nH]3)cc1)C2 [Example 40 (68), 1-(4-{2-[8-(2,2-dimethylpropyl)-2,8-diazaspiro[4.5]dec-2-yl]-2-oxoethyl}phenyl)-N,N-bis(1H-imidazol-2-ylmethyl)methanamine] | negative | 18 |
| – | CCC(CC)N1CCC2(CCN(C(=O)c3ccc(CN(Cc4ncc[nH]4)Cc4nccn4C)cc3)C2)CC1 [Example 40 (72), 1-(4-{[8-(1-ethylpropyl)-2,8-diazaspiro[4.5]dec-2-yl]carbonyl}phenyl)-N-(1H-imidazol-2-ylmethyl)-N-[(1-methyl-1H-imidazol-2-yl)methyl]methanamine] | negative | 16 |
| – | O=C(CC(=O)N1CCC2(CCN(C3CCCCC3)CC2)C1)N1CCC(N(Cc2ncc[nH]2)Cc2ncc[nH]2)CC1 [Example 65 (4), 1-[3-(8-cyclohexyl-2,8-diazaspiro[4.5]dec-2-yl)-3-oxopropanoyl]-N,N-bis(1H-imidazol-2-ylmethyl)-4-piperidinamine] | negative | 12 |
